Measured values reported in US5158939A, “Method of stimulating the immune systems of animals and compositions useful therefor” (priority 1990, dated 1992).

Experiments:
[1] = system: neutrophil; conditions: literature; cited from earlier work
[2] = system: RAW 264.7 murine macrophage cells; assay: Cachectin/TNF production by RAW 264.7 cells, immunoblot; format: cell-based; conditions: other lipid A analogs and precursors
Method: For the […] to activate the RAW 264.7 murine macrophage cell line, we chose the toxic deep rough chemotype LPS (ReLPS) from Escherichia coli D31m4, which was recently purified and characterized^15. […] This is a clear example of a lipid A derivative showing strong antagonism against a toxic agonist in the induction of cachectin.
The immunoblot method was used to quantitate the cachectin/TNF production by RAW 264.7 murine macrophage cells. RAW 264.7 cells^4,16 were seeded in 24-well plates (Nunc) at a density of 3×10^5 cells/well in Dulbecco's modified Eagle's medium supplemented with 5 percent fetal calf serum. After 12 hours, cell monolayers were washed twice with 1 ml of serum-free medium and then left covered with […] of the same. An aqueous suspension of DPLA and/or ReLPS was then added to a final concentration indicated. Cells were incubated for 12 hours, after which the medium was removed for measurement of TNF by immunoblotting. One hundred μl of medium was mixed with 100 μl of SDS-containing sample buffer, heated to 100° C. for 5 minutes, and subjected to electrophoresis in a 10-15% polyacrylamide gradient gel. Proteins were then transferred to nitrocellulose electrophoretically, and TNF was visualized through the use of a rabbit anti-mouse TNF polyclonal serum^3,5 applied at a 1:100 dilution, followed by alkaline phosphatase-conjugated goat anti-rabbit IgG (Bio-Rad).
Bands were visualized using nitroblue tetrazolium. Approximately 0.1 ng of cachectin/TNF may be detected as a band. The antiserum also recognized the processing intermediates (prohormones) on Western blot.

[3] = system: 70Z/3 cells; conditions: background; cited from earlier work
[4] = large excess of lipid X; cited from earlier work

Compound	inhibition of LPS-induced neutrophil priming [1]	induction of cachectin in RAW cells (immunoblot) [2]	activity in stimulating 70Z/3 cells [3]	blocking of toxic effects of lipid A [4]
CCCCCCCCCCC[C@@H](O)CC(=O)N[C@H]1[C@@H](OP(=O)(O)O)O[C@H](CO)[C@@H](O)[C@@H]1NC(=O)C[C@H](O)CCCCCCCCCCC [3-aza-lipid X]	inhibit the LPS-induced neutrophil priming			
monophosphoryl lipid A [reference compound]		caused the induction of cachectin		
CCCCCCCCCCC[C@@H](O)CC(=O)N[C@H]1[C@H](OC[C@H]2O[C@H](OP(=O)(O)O)[C@H](NC(=O)C[C@H](O)CCCCCCCCCCC)[C@@H](OC(=O)C[C@H](O)CCCCCCCCCCC)[C@@H]2O)O[C@H](CO)[C@@H](OP(=O)(O)O)[C@@H]1OC(=O)C[C@H](O)CCCCCCCCCCC [precursor IVA, reference compound]		caused the induction of cachectin		
CCCCCCCCCCC[C@@H](O)CC(=O)N[C@H]1[C@@H](OP(=O)(O)O)O[C@H](CO)[C@@H](O)[C@@H]1OC(=O)C[C@H](O)CCCCCCCCCCC [lipid X]	inhibit the LPS-induced neutrophil priming	caused the induction of cachectin	some activity in stimulating 70Z/3 cells	partially blocking its toxic effects
